Data from patent US8957056B2, “Migrastatin analogs in the treatment of cancer” (Sloan-Kettering Instiute for Cancer Research, priority 2004, dated 2015).
pIC50: −log10 of the molar value. Where two headings read alike, the source gives them in different places. Each block holds one compound with its values, some of them ahead of it.

Tests used:
[1] = rcm bond, toluene, 0.25 h
[2] = test system: adherent cells (e.g. KYSE-520 cells); assay: Wound healing (scratch) assay, preliminary (Table 2); assay type: cell-based; conditions: 28 to 30 h, tested concentrations 200, 100, 50, 25, 10 μM
Description: The wound healing assay was performed based on the method described by Nakae et al. (Nakae et al., J. Antibiotics (2000), 53, 1130-1136). Briefly, adherent cells were grown in a suitable media to confluence (e.g. KYSE-520 cells in RPMI-1640 with 10% FBS). Cells were starved for 24 h in serum free media A scratch (ca. 0.5 mm) was applied and the cell layer was washed twice with PBS after removal of the media. Fresh, serum free media with the test compound at the desired concentration was added and the cells were incubated for 28 to 30 h at 37° C., 5% CO2. The scratch size was compared to that observed for cells exposed to 100 μM Migrastatin. Test compounds associated with a scratch size equal to or larger than that observed for cells exposed to 100 μM Migrastatin were deemed to have cell migration inhibitory activity at least equal to Migrastatin.

[3] = test system: mouse breast tumor cells (4T1 cells); assay: Boyden chamber cell migration assay, 4T1; assay type: cell-based; conditions: for pIC50: 4T1 tumor cells, 6-8 hours, read-out: IC50 value, chamber cell migration assay; for inhibitory activity on tumor cell migration: 4T1 chamber assay
[4] = Mouse blood plasma stability
Description: The biological evaluation of the compounds (in terms of their ability to inhibit cell migration) was accomplished in a Boyden chamber cell migration assay. In this assay, mouse breast tumor cells (4T1 cells) or endothelial cells (HUVECs) are seeded on the upper chamber of a transwell insert. Growth factor-containing serum is added to the lower chamber.
In anticipation of subsequent in vivo evaluation of these compounds and others, preliminary metabolic stability studies were carried out. […] As a test of the ‘deactivation hypothesis’, the hydrolysis product of macrolactone 48 was prepared (Scheme 27) and tested for its activity against tumor cell migration.

[5] = test system: HUVEC; assay: Tube formation assay; assay type: cell-based, human; conditions: HUVEC on matrigel, 16-18 h, tested concentrations 200, 100, 50, 25, 10 μM
Description: A protocol was designed based on the instructions from the provider (BD Bioscience, San Jose, Calif.). Briefly, wells of a 48 well culture dish were covert with 150 μL matrigel and the matrigel was gelatinized for 30 min at 37° C. A 80-90% confluent HUVEC (BD Bioscience, San Jose, Calif.) culture was trypsin treated, the detached cells were collected by centrifugation and resuspended in EGM-2 media (BD Bioscience, San Jose, Calif.). Cell concentration was adjusted to 100.000 cells/mL. 400 μL of the cell suspension were filled in the matrigel coated wells, and a solution of the inhibitor was added to the intended final concentration. The plates were incubated at 37° C. with 5% CO2 for 16-18 h. Media was removed, and the matrigel surface was washed twice with 500 μL PBS before cells were labeled with 250 μL 8 μM Calcein AM (Pierce, Rockford, Ill.) in PBS for 30 min at 37° C. After two additional washing steps (500 μL PBS) cells were visualized under an inverted microscope. Fluorescence was excited at 488 nm and recorded at 538 nm. The minimum effect concentration was defined as the minimal inhibitor concentration that caused a definite disturbance of the complexity of the formed tube network.

[6] = test system: mouse breast tumor cells (4T1 cells); conditions: chamber assay with mouse breast tumor cells; reported in WO 2004/087672; cited from earlier work

SMILES: CO[C@H]1C=CCC/C=C/C(=O)O[C@H]([C@H](C)C(=O)CCCC2CC(=O)NC(=O)C2)/C(C)=C\[C@@H](C)[C@@H]1O[Si](C)(C)C(C)(C)C
ring closure, yield of all isomers ([1]; from C=CCC/C=C/C(=O)O[C@@H](/C(C)=C\[C@@H](C)[C@H](O[Si](C)(C)C(C)(C)C)[C@H](C=C)OC)[C@H](C)C(=O)CCCC1CC(=O)NC(=O)C1, Grubbs II, 0.46 mM, 111.0 °C): 69%

SMILES: CO[C@H]1C=CCCCCC(=O)OC/C(C)=C\[C@@H](C)[C@@H]1O[Si](C)(C)C(C)(C)C
ring closure, yield of all isomers ([1]; from C=CCCCCC(=O)OC/C(C)=C\[C@@H](C)[C@H](O[Si](C)(C)C(C)(C)C)[C@H](C=C)OC, Grubbs II, 0.498 mM, 111.0 °C): 76%

SMILES: CO[C@H]1C=CCCCCC(=O)O[C@H]([C@H](C)C(=O)CCCC2CC(=O)NC(=O)C2)/C(C)=C\[C@@H](C)[C@@H]1O[Si](C)(C)C(C)(C)C
ring closure, yield of all isomers ([1]; from C=CCCCCC(=O)O[C@@H](/C(C)=C\[C@@H](C)[C@H](O[Si](C)(C)C(C)(C)C)[C@H](C=C)OC)[C@H](C)C(=O)CCCC1CC(=O)NC(=O)C1, Grubbs II, 0.48 mM, 111.0 °C): 79%

pIC50 [3]: 5.00
metabolic stability in mouse blood plasma ([4]; mouse, plasma): completely inert toward lactone opening
SMILES: COC1C=CCCCCC(=O)OC(C(C)C(=O)CCCC2CC(=O)NC(=O)C2)C(C)=CC(C)C1O (stereo not shown) [Compound 41, 2,3-Dihydromigrastatin]
Minimum effect concentration [2]: 25 µM
Minimum effect concentration [5]: 50 µM

SMILES: CO[C@H]1/C=C/CC/C=C/C(=O)OC/C(C)=C\[C@@H](C)[C@@H]1O [Compound 45, Migrastatin Core]
metabolic stability in mouse blood plasma ([4]; test period one hour): hydrolyzed rapidly
Minimum effect concentration [5]: 10 µM

pIC50 ([3]; Mus musculus): 6.42
SMILES: CO[C@@H](/C=C/CCCCC(=O)O)[C@@H](O)[C@H](C)/C=C(/C)CO [Compound 51, Hydrolyzed Core]

SMILES: CO[C@H]1/C=C/CCCCC(=O)OC/C(C)=C\[C@@H](C)[C@@H]1OC(C)=O [Compound 49, Acetylated Macrolactone]
inhibitory activity on tumor cell migration [3]: reduced by roughly an order of magnitude

metabolic stability in mouse blood plasma ([4]; mouse, plasma): no sign of degradation
SMILES: COC1C=CCCCCC(=O)OC(C(C)C)C(C)=CC(C)C1O [Compound 65, (S)-Isopropyl Macrolactone]
inhibitory activity on tumor cell migration [3]: only very weak effects on tumor cell migration

SMILES: CO[C@H]1C=CCC/C=C/C(=O)OC/C(C)=C\[C@@H](C)[C@@H]1O[Si](C)(C)C(C)(C)C
ring closure, yield of all isomers ([1]; from C=CCC/C=C/C(=O)OC/C(C)=C\[C@@H](C)[C@H](O[Si](C)(C)C(C)(C)C)[C@H](C=C)OC, Grubbs II, 0.664 mM, 111.0 °C): 55%

SMILES: CO[C@H]1C=CCCCCC(=O)NC/C(C)=C\[C@@H](C)[C@@H]1O[Si](C)(C)C(C)(C)C
ring closure, yield of all isomers ([1]; from C=CCCCCC(=O)NC/C(C)=C\[C@@H](C)[C@H](O[Si](C)(C)C(C)(C)C)[C@H](C=C)OC, Grubbs II, 0.709 mM, 111.0 °C): 60%

SMILES: CO[C@H]1/C=C/CCCCC(C)(O)CC/C(C)=C\[C@@H](C)[C@@H]1O (stereo partly shown) [Compound 70, Macrocyclic Tertiary Alcohol]
ability to inhibit tumor cell migration [6]: rather weak migration inhibitors

SMILES: CO[C@H]1/C=C/CCCCC(O)CC/C(C)=C\[C@@H](C)[C@@H]1O (stereo partly shown) [Compound 69, Macrocyclic Secondary Alcohol]
ability to inhibit tumor cell migration [6]: rather weak migration inhibitors

SMILES: CO[C@H]1/C=C/CCCCC(=NO)CC/C(C)=C\[C@@H](C)[C@@H]1O [Compound 72, Macrooxime]
ability to inhibit tumor cell migration [6]: rather weak migration inhibitors

SMILES: CO[C@H]1/C=C/CCCCC(O)(C(F)(F)F)CC/C(C)=C\[C@@H](C)[C@@H]1O (stereo partly shown) [Compound 71, Macrocyclic CF3-Alcohol]
ability to inhibit tumor cell migration [6]: displays the same activity profile as macroketone 60

SMILES: CO[C@H]1/C=C/CCCCC(=O)OC/C(C)=C\[C@@H](C)C1=O [Compound 50, Oxidized Macrolactone]
inhibitory activity on tumor cell migration [3]: reduced by roughly an order of magnitude

metabolic stability in mouse blood plasma ([4]; mouse, plasma): no sign of degradation
SMILES: COC1C=CCCCCC(=O)OC(C(C)C)C(C)=CC(C)C1O [Compound 68, (R)-Isopropyl Macrolactone]
inhibitory activity on tumor cell migration [3]: only very weak effects on tumor cell migration

pIC50 [3]: 5.15
metabolic stability in mouse blood plasma ([4]; mouse, plasma): completely inert toward lactone opening
SMILES: COC1C=CCCCCC(=O)OC(C(C)C(=O)CCCC2CC(=O)N(C)C(=O)C2)C(C)=CC(C)C1O (stereo not shown) [Compound 42, N-Methyl-2,3-Dihydromigrastatin]

SMILES: CO[C@H]1C=CCCCCC(=O)CC/C(C)=C\[C@@H](C)[C@@H]1O[Si](C)(C)C(C)(C)C
ring closure, yield of all isomers ([1]; from C=CCCCCC(=O)CC/C(C)=C\[C@@H](C)[C@H](O[Si](C)(C)C(C)(C)C)[C@H](C=C)OC, Grubbs-II catalyst, 0.508 mM, 110.0 °C): 81%

SMILES: CO[C@H]1C=CCCCCC(=O)O[C@@H](C(C)C)/C(C)=C\[C@@H](C)[C@@H]1O
ring closure, yield of all isomers ([1]; from C=CCCCCC(=O)O[C@H](/C(C)=C\[C@@H](C)[C@H](O[Si](C)(C)C(C)(C)C)[C@H](C=C)OC)C(C)C, Grubbs-II catalyst, 0.53 mM, 110.0 °C, 2 steps): 65%

SMILES: COC1C=CCCC=CC(=O)OC(C(C)C(=O)CCCC2CC(=O)N(C)C(=O)C2)C(C)=CC(C)C1O (stereo not shown) [N-Methyl-migrastatin]
Minimum effect concentration [2]: 100 µM
Minimum effect concentration [5]: 200 µM
